Test results from ChEMBL document CHEMBL5212743, “Selectivity Literature for EUbOPEN Chemogenomics Library wave 3” (2023).

Key:
[1] = biological target: Proto-oncogene tyrosine-protein kinase ROS (Homo sapiens) (UniProt P08922); test: Selectivity interaction (KinaseProfiler™ (Millipore)) EUB0000640a ROS1; settings: at 1 µM
Activated CDC42 kinase 1 = Activated CDC42 kinase 1 (Homo sapiens, UniProt Q07912); test: Selectivity interaction (KinaseProfiler™ (Millipore)) EUB0000640a TNK2; settings: at 1 µM
[2] = biological target: T1, Cytoplasmic tyrosine-protein kinase BMX (Homo sapiens) (UniProt P51813); test: Selectivity interaction (KinaseProfiler™ (Millipore)) EUB0000640a BMX; settings: at 1 µM
T1 sequence (whole entry): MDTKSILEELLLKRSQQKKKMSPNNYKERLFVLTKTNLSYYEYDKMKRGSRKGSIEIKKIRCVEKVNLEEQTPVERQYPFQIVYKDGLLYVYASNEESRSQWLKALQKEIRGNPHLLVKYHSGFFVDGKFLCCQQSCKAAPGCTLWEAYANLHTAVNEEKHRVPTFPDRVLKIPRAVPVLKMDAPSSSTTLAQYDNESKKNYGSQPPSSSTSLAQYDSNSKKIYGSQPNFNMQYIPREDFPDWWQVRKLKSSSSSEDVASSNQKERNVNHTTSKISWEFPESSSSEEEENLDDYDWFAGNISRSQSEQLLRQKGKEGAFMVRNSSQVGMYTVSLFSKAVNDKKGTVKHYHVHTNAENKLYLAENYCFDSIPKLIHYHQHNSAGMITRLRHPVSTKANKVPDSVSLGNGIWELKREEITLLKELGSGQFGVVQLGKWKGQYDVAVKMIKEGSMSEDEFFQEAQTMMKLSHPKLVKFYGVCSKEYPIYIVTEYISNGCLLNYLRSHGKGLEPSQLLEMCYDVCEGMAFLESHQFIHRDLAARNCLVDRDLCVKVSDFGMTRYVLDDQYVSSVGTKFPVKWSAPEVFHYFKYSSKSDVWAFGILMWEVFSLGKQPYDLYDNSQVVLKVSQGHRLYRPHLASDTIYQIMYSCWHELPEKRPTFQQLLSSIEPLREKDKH

[3] = biological target: Tyrosine-protein kinase TXK (Homo sapiens) (UniProt P42681); test: Selectivity interaction (KinaseProfiler™ (Millipore)) EUB0000640a TXK; settings: at 1 µM
[4] = biological target: Tudor domain-containing protein 3 (Homo sapiens) (UniProt Q9H7E2); test: Selectivity interaction (Reader proteins panel (DSF assay)) EUB0000034d TDRD3
[5] = biological target: Growth/differentiation factor 2 (Homo sapiens) (UniProt Q9UK05); test: Selectivity interaction (Reader proteins panel (DSF assay)) EUB0000034d GDF2
[6] = biological target: Histone-lysine N-methyltransferase SETD2 (Homo sapiens, UniProt Q9BYW2); test: Selectivity interaction (Methyltransferase panel) EUB0000034d SETD2; settings: at 10 µM
[7] = biological target: AT-rich interactive domain-containing protein 4A (Homo sapiens) (UniProt P29374); test: Selectivity interaction (Reader proteins panel (DSF assay)) EUB0000034d ARID4A
[8] = biological target: WD repeat-containing protein 5 (Homo sapiens) (UniProt P61964); test: Selectivity interaction (Reader proteins panel (DSF assay)) EUB0000034d WDR5
[9] = biological target: RNA-binding protein FXR1 (Homo sapiens) (UniProt P51114); test: Selectivity interaction (Reader proteins panel (DSF assay)) EUB0000034d FXR1
Peregrin (Homo sapiens) = Peregrin (Homo sapiens) (UniProt P55201); test: Selectivity interaction (Reader proteins panel (DSF assay)) EUB0000034d BRPF1
[10] = biological target: Staphylococcal nuclease domain-containing protein 1 (Homo sapiens) (UniProt Q7KZF4); test: Selectivity interaction (Reader proteins panel (DSF assay)) EUB0000034d SND1
[11] = biological target: Polycomb protein EED (Homo sapiens) (UniProt O75530); test: Selectivity interaction (Reader proteins panel (DSF assay)) EUB0000034d EED
[12] = biological target: E3 ubiquitin-protein ligase UHRF1 (Homo sapiens) (UniProt Q96T88); test: Selectivity interaction (Reader proteins panel (DSF assay)) EUB0000034d UHRF1
[13] = biological target: Chromatin remodeling regulator CECR2 (Homo sapiens, UniProt Q9BXF3); test: Selectivity interaction (Bromodomain panel (DSF assay)) EUB0000224e CECR2
[14] = biological target: Bromodomain-containing protein 1 (Homo sapiens) (UniProt O95696); test: Selectivity interaction (Bromodomain panel (DSF assay)) EUB0000224e BRD1

Sequence of AT-rich interactive domain-containing protein 4A (Homo sapiens) (P29374 whole entry, the tested form may be a part): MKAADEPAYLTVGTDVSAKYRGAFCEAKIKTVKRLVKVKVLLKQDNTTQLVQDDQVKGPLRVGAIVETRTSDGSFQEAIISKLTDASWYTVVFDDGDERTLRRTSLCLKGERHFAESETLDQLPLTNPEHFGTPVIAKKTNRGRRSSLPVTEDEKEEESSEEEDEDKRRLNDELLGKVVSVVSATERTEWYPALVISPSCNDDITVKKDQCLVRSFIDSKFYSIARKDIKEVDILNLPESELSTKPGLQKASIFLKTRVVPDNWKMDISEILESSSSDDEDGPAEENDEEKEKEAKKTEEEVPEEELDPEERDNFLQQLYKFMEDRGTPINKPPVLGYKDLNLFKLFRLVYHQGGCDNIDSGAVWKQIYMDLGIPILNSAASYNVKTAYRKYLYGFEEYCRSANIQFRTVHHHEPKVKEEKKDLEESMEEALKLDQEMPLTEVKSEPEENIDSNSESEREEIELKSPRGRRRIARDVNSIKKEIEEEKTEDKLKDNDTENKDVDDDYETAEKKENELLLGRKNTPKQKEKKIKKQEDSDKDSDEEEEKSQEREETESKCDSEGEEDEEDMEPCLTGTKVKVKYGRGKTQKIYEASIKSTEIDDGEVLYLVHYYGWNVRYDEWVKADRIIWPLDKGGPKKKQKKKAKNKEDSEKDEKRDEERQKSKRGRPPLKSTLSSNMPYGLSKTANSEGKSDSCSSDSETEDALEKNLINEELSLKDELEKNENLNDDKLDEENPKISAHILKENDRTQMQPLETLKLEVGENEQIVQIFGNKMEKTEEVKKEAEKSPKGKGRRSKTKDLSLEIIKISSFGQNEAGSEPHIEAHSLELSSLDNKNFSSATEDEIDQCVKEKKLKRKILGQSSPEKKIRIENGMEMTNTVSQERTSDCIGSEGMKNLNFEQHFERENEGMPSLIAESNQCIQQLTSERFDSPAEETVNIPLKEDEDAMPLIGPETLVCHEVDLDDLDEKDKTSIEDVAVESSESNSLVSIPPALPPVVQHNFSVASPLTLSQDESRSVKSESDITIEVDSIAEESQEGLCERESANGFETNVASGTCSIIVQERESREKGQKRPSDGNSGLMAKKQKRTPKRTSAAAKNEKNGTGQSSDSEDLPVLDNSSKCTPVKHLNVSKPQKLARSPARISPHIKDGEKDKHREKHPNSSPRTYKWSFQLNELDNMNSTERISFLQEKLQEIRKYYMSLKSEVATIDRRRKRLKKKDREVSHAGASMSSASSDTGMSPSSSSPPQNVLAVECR
Sequence of Peregrin (Homo sapiens) (P55201 whole entry, the tested form may be a part): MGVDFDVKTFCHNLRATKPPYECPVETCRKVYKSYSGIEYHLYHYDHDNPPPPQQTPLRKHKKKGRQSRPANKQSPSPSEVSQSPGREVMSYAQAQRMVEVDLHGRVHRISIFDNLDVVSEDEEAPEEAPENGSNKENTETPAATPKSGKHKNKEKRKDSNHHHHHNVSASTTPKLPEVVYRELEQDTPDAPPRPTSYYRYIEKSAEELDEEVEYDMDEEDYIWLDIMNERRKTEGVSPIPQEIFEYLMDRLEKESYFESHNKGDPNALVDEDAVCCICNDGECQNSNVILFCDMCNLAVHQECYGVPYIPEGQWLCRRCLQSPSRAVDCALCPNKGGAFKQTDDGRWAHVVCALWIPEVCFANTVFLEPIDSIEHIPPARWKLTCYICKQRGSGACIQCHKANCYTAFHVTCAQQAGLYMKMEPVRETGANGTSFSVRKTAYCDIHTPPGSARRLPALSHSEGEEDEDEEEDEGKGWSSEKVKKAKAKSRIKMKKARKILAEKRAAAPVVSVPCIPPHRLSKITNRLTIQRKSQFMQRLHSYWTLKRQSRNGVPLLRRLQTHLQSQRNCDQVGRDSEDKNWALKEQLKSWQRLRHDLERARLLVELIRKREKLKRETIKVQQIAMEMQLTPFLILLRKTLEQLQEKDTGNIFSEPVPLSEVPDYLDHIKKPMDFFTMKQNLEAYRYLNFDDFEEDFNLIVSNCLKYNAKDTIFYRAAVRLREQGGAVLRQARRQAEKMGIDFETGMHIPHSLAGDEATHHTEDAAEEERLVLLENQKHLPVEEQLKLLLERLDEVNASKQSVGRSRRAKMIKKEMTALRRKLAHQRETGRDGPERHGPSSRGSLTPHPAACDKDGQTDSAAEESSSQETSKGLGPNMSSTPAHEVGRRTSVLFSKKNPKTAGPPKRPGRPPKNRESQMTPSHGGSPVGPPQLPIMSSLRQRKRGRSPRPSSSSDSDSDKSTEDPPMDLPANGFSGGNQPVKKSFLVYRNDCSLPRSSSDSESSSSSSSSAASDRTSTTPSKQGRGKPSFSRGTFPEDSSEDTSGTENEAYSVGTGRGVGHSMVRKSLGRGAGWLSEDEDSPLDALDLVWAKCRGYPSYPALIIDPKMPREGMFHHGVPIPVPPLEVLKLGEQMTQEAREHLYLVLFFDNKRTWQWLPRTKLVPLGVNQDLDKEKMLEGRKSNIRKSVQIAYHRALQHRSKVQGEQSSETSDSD
Sequence of Polycomb protein EED (Homo sapiens) (O75530 2-441 limits assumed): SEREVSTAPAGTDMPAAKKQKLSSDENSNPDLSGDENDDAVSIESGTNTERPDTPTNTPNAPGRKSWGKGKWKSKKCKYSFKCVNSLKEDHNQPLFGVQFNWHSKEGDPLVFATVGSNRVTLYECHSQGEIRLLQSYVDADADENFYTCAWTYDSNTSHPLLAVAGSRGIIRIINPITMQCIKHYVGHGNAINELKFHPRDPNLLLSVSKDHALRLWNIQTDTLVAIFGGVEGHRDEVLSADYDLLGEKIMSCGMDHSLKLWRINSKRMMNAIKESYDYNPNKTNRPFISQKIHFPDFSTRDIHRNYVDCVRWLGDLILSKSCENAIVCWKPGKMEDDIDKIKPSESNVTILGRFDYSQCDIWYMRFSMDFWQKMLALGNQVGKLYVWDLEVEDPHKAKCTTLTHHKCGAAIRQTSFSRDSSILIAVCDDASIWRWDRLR
Sequence of Staphylococcal nuclease domain-containing protein 1 (Homo sapiens) (Q7KZF4 whole entry, the tested form may be a part): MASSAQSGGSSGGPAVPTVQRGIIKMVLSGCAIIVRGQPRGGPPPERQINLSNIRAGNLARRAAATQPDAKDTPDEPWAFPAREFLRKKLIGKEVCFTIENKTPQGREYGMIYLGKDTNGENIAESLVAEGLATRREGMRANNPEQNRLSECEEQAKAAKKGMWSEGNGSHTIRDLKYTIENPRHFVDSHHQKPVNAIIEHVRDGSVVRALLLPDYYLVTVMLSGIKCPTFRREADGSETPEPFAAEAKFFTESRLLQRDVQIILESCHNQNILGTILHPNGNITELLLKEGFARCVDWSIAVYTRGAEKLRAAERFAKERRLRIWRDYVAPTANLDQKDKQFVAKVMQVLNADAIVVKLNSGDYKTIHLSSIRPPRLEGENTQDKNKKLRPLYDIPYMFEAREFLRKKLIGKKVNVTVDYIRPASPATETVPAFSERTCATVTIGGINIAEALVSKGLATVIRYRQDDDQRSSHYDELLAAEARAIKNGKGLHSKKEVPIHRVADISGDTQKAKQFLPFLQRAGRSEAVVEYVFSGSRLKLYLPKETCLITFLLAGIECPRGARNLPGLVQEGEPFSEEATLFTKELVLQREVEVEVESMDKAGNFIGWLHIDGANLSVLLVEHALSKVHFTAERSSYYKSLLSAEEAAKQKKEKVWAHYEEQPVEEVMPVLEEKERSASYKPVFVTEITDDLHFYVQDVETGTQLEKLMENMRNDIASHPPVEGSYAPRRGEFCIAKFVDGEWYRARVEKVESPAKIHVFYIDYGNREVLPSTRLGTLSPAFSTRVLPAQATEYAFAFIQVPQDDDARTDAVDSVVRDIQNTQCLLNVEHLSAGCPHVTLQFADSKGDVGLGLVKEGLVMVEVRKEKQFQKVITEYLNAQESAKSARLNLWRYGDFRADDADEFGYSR
Sequence of RNA-binding protein FXR1 (Homo sapiens) (P51114 whole entry): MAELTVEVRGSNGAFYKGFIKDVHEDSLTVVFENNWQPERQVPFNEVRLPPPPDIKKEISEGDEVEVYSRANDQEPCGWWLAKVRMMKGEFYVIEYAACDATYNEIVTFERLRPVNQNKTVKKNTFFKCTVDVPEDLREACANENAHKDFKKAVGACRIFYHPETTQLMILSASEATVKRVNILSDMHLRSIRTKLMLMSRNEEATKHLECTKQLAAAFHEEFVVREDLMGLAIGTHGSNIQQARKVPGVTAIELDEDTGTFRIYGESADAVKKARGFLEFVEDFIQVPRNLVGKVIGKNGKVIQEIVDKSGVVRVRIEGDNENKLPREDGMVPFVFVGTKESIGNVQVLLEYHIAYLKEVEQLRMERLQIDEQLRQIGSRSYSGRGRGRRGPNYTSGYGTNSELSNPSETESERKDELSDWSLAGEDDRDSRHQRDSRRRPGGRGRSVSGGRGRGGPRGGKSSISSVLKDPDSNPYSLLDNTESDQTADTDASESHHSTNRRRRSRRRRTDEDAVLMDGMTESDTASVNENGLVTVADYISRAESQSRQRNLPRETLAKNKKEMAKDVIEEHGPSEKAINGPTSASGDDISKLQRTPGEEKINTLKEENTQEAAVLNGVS
Sequence of Growth/differentiation factor 2 (Homo sapiens) (Q9UK05 whole entry): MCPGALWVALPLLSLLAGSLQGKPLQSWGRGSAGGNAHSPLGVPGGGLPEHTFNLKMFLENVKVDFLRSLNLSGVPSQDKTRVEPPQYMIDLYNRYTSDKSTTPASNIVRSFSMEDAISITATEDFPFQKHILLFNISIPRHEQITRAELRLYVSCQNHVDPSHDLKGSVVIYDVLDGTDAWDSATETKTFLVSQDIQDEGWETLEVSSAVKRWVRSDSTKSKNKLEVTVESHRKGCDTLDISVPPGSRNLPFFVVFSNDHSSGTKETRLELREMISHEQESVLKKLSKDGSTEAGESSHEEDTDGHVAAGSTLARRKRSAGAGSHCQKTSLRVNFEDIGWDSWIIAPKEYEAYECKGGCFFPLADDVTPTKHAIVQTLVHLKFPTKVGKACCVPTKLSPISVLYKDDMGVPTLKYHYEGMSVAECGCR

Work on `C[C@@H]1CCc2ncc(F)cc2[C@H]2CCCN2c2ccn3ncc(c3n2)C(=O)N1` yielded a % of control [1] of 12%, a % of control (Activated CDC42 kinase 1) of 10% and a % of control [2] of 15%. For the same compound, the % of control [3] was 14%.
`CC(C)Oc1ccc(-c2c[nH]cc2CN(C)CCN)cc1` was tested, and the dTm [4] was under 2 K, the dTm [5] was under 2 K and the % activity remaining [6] was 80%. The dTm [7] was under 2 K, the dTm [8] was under 2 K and the dTm [9] was under 2 K. It also gave a dTm (Peregrin (Homo sapiens)) of under 2 K, a dTm [10] of under 2 K and a dTm [11] of under 2 K. The dTm [12] was under 2 K.
Compound `COc1ccccc1C(=O)Nc1cc2c(cc1N1CCCC1)n(C)c(=O)n2C` has a dTm [13] of 2 K and a dTm [14] of 2 K.
